Test results as given in ChEMBL document CHEMBL3817775, “Kinetic and Structural Insights into the Mechanism of Binding of Sulfonamides to Human Carbonic Anhydrase by Computational and Experimental Studies” (J Med Chem, 2016).

Assays:
Carbonic anhydrase 2 [1] = molecular target: T1, Carbonic anhydrase 2 (Homo sapiens, UniProt P00918); assay: Binding affinity to GST-fused human carbonic anhydrase-2 expressed in Escherichia coli BL21 codon plus cells assessed as steady state dissociation constant by SPR method
Carbonic anhydrase 2 [2] = molecular target: T1, Carbonic anhydrase 2; assay: Binding affinity to GST-fused human carbonic anhydrase-2 expressed in Escherichia coli BL21 codon plus cells assessed as dissociation constant by SPR method

Kd (Carbonic anhydrase 2 [1]) [µM] | Kd (Carbonic anhydrase 2 [2]) [µM] | SMILES
60.6 | 57.8 | CCCc1ccc(S(N)(=O)=O)cc1
125 | 98.3 | CCc1ccc(S(N)(=O)=O)cc1
